Converted amounts (≈) assume the structure as drawn. A value given as a limit tells only on which side of the number the result lay.

These results are taken from ChEMBL document CHEMBL1133887, “Anti-influenza virus activities of 2-alkoxyimino-n-(2-isoxazolin-3-ylmethyl)acetamides” (Bioorg Med Chem Lett, 2001).

Assay [1] can be described thus: Antiviral activity against A/WSN/33 strain of influenza virus (H1N1 subtype) in MDBK cells using cell protection assay; expressed as 10-100 ppm. The class given is functional, cell-based. The conditions noted are these: Bos taurus.
A short description of assay [2]: Evaluated for cytotoxic activity in MDBK cells. Format: functional. Conditions: Bos taurus.
Another assay is described as follows: cells. The class given is functional, cell-based. The conditions noted are these: Bos taurus, MDBK.
A short description of assay [3]: Antiviral activity against A/WSN/33 strain of influenza virus (H1N1 subtype) in MDBK cells using cell protection assay; expressed as 1-10 ppm. The conditions noted are these: Bos taurus. Format: functional, cell-based.
The nature of assay [4]: The compound was evaluated for cytotoxic activity in MDBK cells; expressed as >100 ppm. The class given is functional. Conditions: Bos taurus.
Assay [5] can be described thus: Antiviral activity against A/WSN/33 strain of influenza virus (H1N1 subtype) in MDBK cells using cell protection assay; expressed as >10-100 ppm. Format: functional, cell-based. Conditions: Bos taurus.
Assay [6] in a line: Antiviral activity against A/WSN/33 strain of influenza virus (H1N1 subtype) in MDBK cells using cell protection assay; expressed as 100 ppm. The conditions noted are these: Bos taurus. Format: functional, cell-based.
Assay [7] can be described thus: Antiviral activity against A/WSN/33 strain of influenza virus (H1N1 subtype) in MDBK cells using cell protection assay. Format: functional, cell-based. Conditions: Bos taurus.

On to `CO/N=C(/C#N)C(=O)NCC1=NOC(C(C)(C)C)C1` (stereo not given), for which the EC50 in assay [1] was 100 µg/mL (≈ 376 µM). Further, in assay [2], the 50% cytotoxic concentration (CC50) was over 100 µg/mL.

In turn, `CO/N=C(/C#N)C(=O)NCC1=NOC(C)(C)C1` returned an EC50 in the assay “cells” of over 100 µg/mL. Besides, in assay [2], the cytotoxic concentration (CC50) was over 100 µg/mL.

`CO/N=C(\C#N)C(=O)NC1=NOC(C(C)(C)C)C1` (stereo not given): in “cells”, the EC50 is over 100 µg/mL. The molecule also displayed a CC50 in assay [2] of over 100 µg/mL.

As for `CC(C)O/N=C(\C#N)C(=O)NCC1=NOC(C(C)(C)C)C1` (stereo not given), the EC50 in assay [3] amounted to 10 µg/mL (≈ 34 µM). Moreover, the CC50 in assay [2] was over 100 µg/mL.

In the case of `CO/N=C(\C#N)C(=O)NCC1=NOC(C(C)(C)C)C1` (stereo not given), the EC50 in assay [3] is 10 µg/mL (≈ 37.6 µM). This molecule also displayed a half-maximal cytotoxic concentration (CC50) in assay [2] of over 100 µg/mL.

In assay [1], `CO/N=C(\C#N)C(=O)NCC1=NOC(C)C1` (stereo not given) had an EC50 of 100 µg/mL (≈ 446 µM). In assay [4], this molecule had a CC50 of over 100 µg/mL.

In the case of `C=CCO/N=C(\C#N)C(=O)NCC1=NOC(c2ccccc2)(c2ccccc2)C1`, the EC50 in assay [5] was over 100 µg/mL. In assay [2], this molecule registered a 50% cytotoxic concentration (CC50) of 100 µg/mL (≈ 257 µM).

Turning to `C=CCO/N=C(\C#N)C(=O)NCc1cc(C(C)(C)C)on1`, in assay [1], a half-maximal response (EC50) required 100 µg/mL (≈ 344 µM). In addition, the CC50 in assay [2] came to 100 µg/mL (≈ 344 µM).

The molecule `CO/N=C(\C#N)C(=O)NCc1cccnc1` showed an EC50 in “cells” of over 100 µg/mL. The same molecule registered a CC50 in assay [2] of over 100 µg/mL.

`C=CCO/N=C(/C(=O)NCC1=NOC(C(C)(C)C)C1)c1ccccc1` (stereo not given) showed a concentration for a half-maximal effect (EC50) in assay [6] of 100 µg/mL (≈ 291 µM). This molecule had a CC50 in assay [2] of over 100 µg/mL.

For `CO/N=C(\C#N)C(=O)NCC1=NOC(C)(C)C1`, the EC50 in assay [1] is 100 µg/mL (≈ 420 µM). The same molecule showed a CC50 in assay [2] of over 100 µg/mL.

On to `CO/N=C(\C#N)C(=O)NCc1cccs1`, for which the concentration for a half-maximal effect (EC50) in the assay “cells” is over 100 µg/mL. Moreover, the 50% cytotoxic concentration (CC50) in assay [2] was over 100 µg/mL.

As to `CO/N=C(\C#N)C(=O)NC(=O)OC(C)(C)C`, in the assay “cells”, the half-maximal effective concentration (EC50) is over 100 µg/mL. For the same molecule, the CC50 in assay [2] is over 100 µg/mL.

In “cells”, `CC(C)(C)C1CC(CNC(=O)/C(C#N)=N/OCc2cccnc2)=NO1` (stereo not given) displayed a 50% effective concentration (EC50) of over 100 µg/mL. In assay [2], this molecule showed a CC50 of over 100 µg/mL.

The molecule `CCO/N=C(\C#N)C(=O)NCC1=NOC(C(C)(C)C)C1` (stereo not given) displayed a half-maximal effective concentration (EC50) in assay [3] of 10 µg/mL (≈ 35.7 µM). The cytotoxic concentration (CC50) in assay [2] was over 100 µg/mL.

Consider `CC(C)(C)C1CC(CNC(=O)/C(C#N)=N/OCC#N)=NO1` (stereo not given), for which the midpoint of the response in assay [1], the EC50, lay at 100 µg/mL (≈ 343 µM). In addition, the half-maximal cytotoxic concentration (CC50) in assay [2] is over 100 µg/mL.

In the case of `C=CCO/N=C/C(=O)NCC1=NOC(C(C)(C)C)C1` (stereo not given), the EC50 in assay [6] came to 100 µg/mL (≈ 374 µM). The molecule further yielded a half-maximal cytotoxic concentration (CC50) in assay [2] of over 100 µg/mL.

Turning to `C=CCO/N=C(\C#N)C(=O)NCC1=NOC(c2ccccc2)C1` (stereo not given), in assay [1], a half-maximal response (EC50) required 100 µg/mL (≈ 320 µM). In assay [2], this molecule displayed a CC50 of 100 µg/mL (≈ 320 µM).

On to `C=CCO/N=C(\C)C(=O)NCC1=NOC(C(C)(C)C)C1` (stereo not given), for which, in assay [7], the EC50 stood at 6 µg/mL (≈ 21.3 µM). The molecule also registered a CC50 in assay [2] of over 100 µg/mL.

Molecule `CC(C)(C)C1CC(CNC(=O)/C(C#N)=N/OCc2ccccc2)=NO1` (stereo not given) returned an EC50 in assay [1] of 100 µg/mL (≈ 292 µM). This molecule also displayed a CC50 in assay [2] of 100 µg/mL (≈ 292 µM).

`CO/N=C(\C#N)C(=O)NCC1CC(C(C)(C)C)=NO1` (stereo not given) had an EC50 in assay [1] of 100 µg/mL (≈ 376 µM). For the same molecule, in assay [2], the CC50 is over 100 µg/mL.

As to `C=CCO/N=C(\CC)C(=O)NCC1=NOC(C(C)(C)C)C1` (stereo not given), in assay [6], the EC50 turned out to be 100 µg/mL (≈ 339 µM). Further, in assay [2], the CC50 was over 100 µg/mL.

`C=CCO/N=C(\C#N)C(=O)NCC1=NOC(C(C)(C)C)C1` (stereo not given) had an EC50 in assay [7] of 3 µg/mL (≈ 10.3 µM). In assay [2], this molecule showed a half-maximal cytotoxic concentration (CC50) of over 100 µg/mL.

Take `NC12CC3CC(CC(C3)C1)C2` [AMANTADINE]: the EC50 in assay [1] was 100 µg/mL (≈ 661 µM). This molecule also showed a 50% cytotoxic concentration (CC50) in assay [2] of over 100 µg/mL.

`CCNC(=O)NC(=O)/C(C#N)=N/OC` [CYMOXANIL] came in with an EC50 in the assay “cells” of over 100 µg/mL. In assay [2], the half-maximal cytotoxic concentration (CC50) is over 100 µg/mL.
